{"source": "paper PMC12207880", "about": "(The Oncologist, 2025)", "origin": "cited, not measured here", "key": {"advanced solid tumors": {"tested_on": "advanced solid tumors", "design": "method as in earlier work"}, "[1]": {"tested_on": "patients treated with endocrine therapy combined with palbociclib"}, "[2]": {"conditions": "200 mg BID"}, "[3]": {"tested_on": "patients treated with abemaciclib alone"}, "[4]": {"conditions": "sample size 132, U.S.A, France, Netherland"}, "[5]": {"conditions": "sample size 33 (escalation phase), U.S.A"}}, "note": "Where two headings read alike, the source gives them in different places.", "data": [{"smiles": "CC(=O)c1c(C)c2cnc(Nc3ccc(N4CCNCC4)cn3)nc2n(C2CCCC2)c1=O", "note": "[Palbociclib, palbociclib]", "values": [{"measurement": "Overall DCR", "setting": "advanced solid tumors; sample size 37, U.S.A", "result": 35, "unit": "%"}, {"measurement": "Overall ORR", "setting": "advanced solid tumors; sample size 37, U.S.A", "result": 0, "unit": "%"}, {"measurement": "grade 4 increased GGT", "setting": "[1]; 1 of 135 patients", "result": 0.7, "unit": "%"}, {"measurement": "grade 3 increased GGT", "setting": "[1]; 3 of 135 patients", "result": 2.2, "unit": "%"}, {"measurement": "overall incidence of increased GGT", "setting": "[1]; 135 patients", "result": 4.4, "unit": "%"}]}, {"smiles": "CN(C)C(=O)c1cc2cnc(Nc3ccc(N4CCNCC4)cn3)nc2n1C1CCCC1", "note": "[Ribociclib, ribociclib]", "values": [{"measurement": "Overall DCR", "setting": "advanced solid tumors; [4]", "result": 32.6, "unit": "%"}, {"measurement": "Overall ORR", "setting": "advanced solid tumors; [4]", "result": 2.3, "unit": "%"}]}, {"smiles": "CCN1CCN(Cc2ccc(Nc3ncc(F)c(-c4cc(F)c5nc(C)n(C(C)C)c5c4)n3)nc2)CC1", "note": "[Abemaciclib, abemaciclib]", "values": [{"measurement": "Ctrough", "setting": "[2]; n=5", "result": "210 (89%, n=5) ng/mL"}, {"measurement": "Ctrough", "setting": "[2]; n=52", "result": "197 (82%, n=52) ng/mL"}, {"measurement": "Overall DCR", "setting": "advanced solid tumors; sample size 25, China", "result": 68.0, "unit": "%"}, {"measurement": "Overall ORR", "setting": "advanced solid tumors; sample size 25, China", "result": 8.0, "unit": "%"}, {"measurement": "Overall DCR", "setting": "advanced solid tumors; [5]", "result": 48.5, "unit": "%"}, {"measurement": "Overall ORR", "setting": "advanced solid tumors; [5]", "result": 0, "unit": "%"}, {"measurement": "hypokalaemia of grade 3", "setting": "[3]", "result": 2, "unit": "patients"}, {"measurement": "hypokalaemia of all grades", "setting": "[3]; 34 of 130 patients", "result": 26.2, "unit": "%"}]}]}
